Values joined by “and” are separate entries in the source; they are usually repeats but may differ in a detail not shown here. Equal entries are not always repeated. Where two headings read alike, the source gives them in different places.
What was measured:
[1] = Growth performance of broiler rabbits fed thymol pellets; assay type: in vivo; settings: for live weight / average weight gain per rabbit / conversion ratio: EG
Method: The experiment lasted 28 days.
Body weight (BW) and feed intake (FI) were recorded individually once a week. The average daily FI, average daily weight gain (WG) and feed conversion ratio (FCR) were calculated at the end of the period (at 56 d of age and 63 d of age).

[2] = cited from earlier work
[3] = set-up: method as in earlier work; settings: weak acid; cited from earlier work
[4] = Thymol in plasma, tissues, large intestinal content and faeces (SPME GC/MS)
Method: A total of 48 rabbits of both sexes (an equal male-to-female ratio per treatment) at five weeks of age were randomly divided into two dietary treatment groups (24 rabbits in each); a control group (CG) fed a standard diet to which enteric pellets without thymol were added and an experimental group (EG) fed a standard diet into which enteric pellets with thymol (250 mg/kg) were incorporated. Plasma and tissue samples from the control group were used as blank samples to construct calibration curves. The rabbits of meat line M91, maternal albinotic line (cross breed New Zealand White, Bouscat rabbit, Argente Champagnet rabbit) and paternal acromalictic line (crossbreed Nitra’s rabbit, Californian rabbit, Big light silver) were used in this experiment. The animals were fed ad libitum and had free access to drinking water. All the experimental wire-net cages (61 cm × 34 cm × 33 cm) were kept in rooms with automatic temperature and humidity control through a digital thermograph (22 ± 4 °C, 70 ± 5%). A lighting regimen of 16 h light and 8 h dark was applied throughout the experiment. The experiment lasted 28 days. The EG rabbits received feed with thymol pellets for 21 days (56 d of age) and for the next 7 days (63 d of age) received pellets without thymol incorporated into feed.
To determine the thymol content in plasma, blood (1.5 mL) from nine rabbits was collected from the marginal ear vein (vena auricularis) into heparinised Eppendorf tubes, and plasma was obtained after centrifugation at 1180× g for 15 min. The gastrointestinal tract was removed from the body cavity and was divided into the small intestine (duodenum and jejunum), caecum and colon (n = 9). Caecum and colon contents were removed, and the small intestinal lumen was gently washed with a 0.9% NaCl solution. The obtained samples of duodenal wall (DW), jejunal wall (JW) and gut content together with plasma, liver, kidney, muscle (longissimus thoracis et lumborum, LTL) and spleen tissue, fat, and faeces were immediately frozen in liquid nitrogen and stored at −70 °C until analysed. All samples were collected on both experimental days (56 or 63 d of age).
Thymol was determined using solid-phase microextraction (SPME) coupled with gas chromatography/mass spectrometry (GC/MS). The analytical system comprised an Agilent 7890A gas chromatograph (Agilent Technologies, Wilmington, DE, USA) interfaced with an Agilent 5975C Mass Selective Detector (VL MSD with Triple-Axis Detector), Agilent Technologies, Wilmington, DE, USA). Chromatographic separation was achieved on an HP-5MS capillary column (Agilent 19091S-433) with dimensions of 30 m in length, 0.250 mm inner diameter and 0.25 μm film thickness. Helium served as the carrier gas under strictly controlled flow (an initial flow rate of 2.77 mL/min and a post-run flow of 1.3 mL/min) and inlet pressure (approximately 23.27 psi). Sample preparation was carried out using solid-phase microextraction (SPME), a solvent-free and efficient extraction technique that utilises the adsorption of analytes onto a polymer-coated fibre. For this purpose, a 65 μm polydimethylsiloxane/divinylbenzene (PDMS/DVB) StableFlex fibre assembly (23Ga, Supelco 57293-U, Sigma-Aldrich, St. Louis, MO, USA) was employed in combination with a PAL autosampler (CTC Analytics, Zwingen, Switzerland). Due to fibre wear, the SPME fibre was replaced after every 40 to 60 samples to ensure consistent extraction performance.
For determination of the total content of thymol plasma and homogenized tissue samples were enzymatically hydrolysed with β-glucuronidase from Helix pomatia (Sigma-Aldrich, St. Louis, MO, USA) at 37 °C and pH 5 for 30 min to cleave thymol conjugates. Following hydrolysis, samples were salted out with sodium chloride (1.00 g), acidified with phosphoric acid (85%) and spiked with an o-cresol internal standard. All reagent concentrations and incubation conditions were applied as described in the previous study by Oceľová et al..

[5] = Thymol stability in feed (HPLC); assay type: physicochemical; settings: enteric SES pellets in feed
Method: Thymol evaporation in feed was analysed every week during thymol application using high-performance liquid chromatography (HPLC) according to the modified method of Oceľová [10] and Pisarčíková et al.. Samples were analysed in triplicate. Briefly, 2 mL of methanol was added to a glass tube containing 0.2 g of milled feed, and thymol was extracted in an ultrasonic bath. The methanolic extract was then analysed using the HPLC method with an Ultimate 3000 HPLC-system liquid chromatograph (Dionex, Sunnyvale, CA, USA). The chromatographic analyses were evaluated using Chromeleon® Software Version 6.80 SR10 Build 2906 (Thermo Fisher Scientific, Waltham, MA, USA).

[6] = thymol 250 mg/kg feed, 56 d of age
[7] = powder form, after thymol withdrawal
[8] = same concentration of thymol, powder non-pelleted form

thymol in muscle ([4]; after thymol withdrawal (7 d)): below LOQ
thymol in plasma ([4]; after thymol withdrawal (7 d)): below LOQ
thymol in spleen ([4]; after thymol withdrawal (7 d)): below LOQ
Spearman correlation (rs) of thymol concentration, DW and kidney ([4]; both, rabbit, in vivo): 0.9833
Spearman correlation (rs) of thymol concentration, DW and muscle ([4]; both, rabbit, in vivo): 0.8167
Spearman correlation (rs) of thymol concentration, JW and muscle ([4]; both, rabbit, in vivo): 0.8500
Spearman correlation (rs) of thymol concentration, plasma and kidney ([4]; both, rabbit, in vivo): 0.9167
Spearman correlation (rs) of thymol concentration, plasma and muscle ([4]; both, rabbit, in vivo): 0.8667
thymol concentration in DW, times higher than in JW ([4]; both, rabbit, in vivo): 1.1 times
thymol concentration in DW, times higher than in caecum ([4]; both, rabbit, in vivo): 1.9 times
thymol concentration in DW, times higher than in colon ([4]; both, rabbit, in vivo): 1.3 times
concentration at 21 d ([4]; both, rabbit, in vivo, 250 mg/kg): 213 ng/mL and 753 ng/g
Spearman correlation (rs) of thymol concentration, plasma and DW ([4]; both, rabbit, in vivo, 21 d): 0.9333
thymol concentration in DW, times higher than in JW ([4]; both, rabbit, in vivo, 21 d): 1.4 times
thymol concentration in DW, times higher than in caecum ([4]; both, rabbit, in vivo, 21 d): 1.7 times
thymol concentration in DW, times higher than in colon ([4]; both, rabbit, in vivo, 21 d): 1.3 times
thymol in all tissues (plasma, liver, kidney, spleen, fat, muscle) and entire intestinal tract ([4]; rabbit, in vivo): above LOQ
concentration of thymol in feed ([5]; 0 d of thymol application): 246.1 ± 5.8 µg/g DM
concentration of thymol in feed ([5]; 7 d of thymol application): 197.8 ± 8.3 µg/g DM
concentration of thymol in feed ([5]; 14 d of thymol application): 221.9 ± 5.1 µg/g DM
SMILES: Cc1ccc(C(C)C)c(O)c1 [thymol, Thymol]
live weight ([1]; 63 d of age (7 d after thymol withdrawal)): 2525 ± 63.2 g
average weight gain per rabbit ([1]; 63 d of age (after withdrawal)): 40.24 ± 2.94 g/day
conversion ratio ([1]; 63 d of age (after withdrawal)): 4.24 ± 0.29
average weight gain per rabbit [1, 6]: 36.25 ± 1.48 g/day
conversion ratio [1, 6]: 4.44 ± 0.25
live weight ([1]; thymol 250 mg/kg feed, 56 d of age (21 d with thymol)): 2497 ± 46.9 g
growth performance ([1]; thymol addition 250 mg/kg feed vs control): not influenced
thymol in all intestinal segments and organs [2, 7]: below the detection limit
thymol in spleen [2, 7]: not detected
thymol in muscle and fat tissues ([2]; powder form, during application): below the detection limit
thymol concentration in DW, times lower than in caecum [2, 8]: 3.3 times
thymol concentration in DW, times lower than in colon [2, 8]: 2.5 times
dissociation constant pKA [3]: 10.62
